Laboratory results from patent publication EP0369035A1, “AGENT FOR TREATING PANCREATITIS OR THE LIKE” (priority 1988, dated 1989).

Columns and labels:
human plasma kallikrein = target: T1, human plasma kallikrein (Homo sapiens, UniProt P03952); experiment: Anti-plasma kallikrein activity: inhibition of S-2302 degradation; format: biochemical; conditions: substrate S-2302, 37°C, pH 7.8; read-out: Plasma kallikrein S-2302 (I50)
T1 construct: 50 µl of 0.12 units/ml human plasma kallikrein solution
Description: 2) Assay of anti-plasma kallikrein activity Assay method of inhibition of S-2302 degradation
(§1) The test substance was dissolved in a 0.05 M Tris-HC1 (pH 7.8) buffer to make a total volume of 400 µl, and 50 µl of a 2 mM S-2302 solution was added to the solution. After incubation at 37°C for 5 minutes in an incubator, an addition of 50 µl of 0.12 units/ml human plasma kallikrein solution, and incubation at 37°C for 5 minutes, the reaction was terminated by an addition of 50 µl of 50% acetic acid.

human plasmin [1] = target: T2, human plasmin (Homo sapiens, UniProt P00747); experiment: Anti-plasmin activity: inhibition of fibrinolysis (fibrin clot lysis time); format: biochemical; conditions: concentration giving a fibrin clot lysis time twice that of control, 37°C, pH7.4; read-out: Plasmin Fibrin (I50)
T2 construct: 50 µl of 0.2 casein units/ml of human plasmin

human urokinase = human urokinase (Homo sapiens, UniProt P00749); experiment: Anti-urokinase activity: inhibition of S-2444 degradation; format: biochemical; conditions: substrate S-2444, 37°C, pH 8.8; read-out: Urokinase S-2444 (I50)
Description: 3) Assay of anti-urokinase activity Assay method of inhibition of S-2444 degradation
as §1, with “8.8)” for “7.8)”, “1” for “2”, “S-2444” for “S-2302”, “mixture.” for “solution.”, “500” for “0.12”, “urokinase” for “plasma kallikrein”

human plasmin [2] = target: T2, human plasmin; experiment: Anti-plasmin activity: inhibition of S-2251 degradation; format: biochemical; conditions: substrate S-2251, 37°C, pH7.4; read-out: Plasmin S-2251 (I50)
Description: ii) Assay method of inhibition of S-2251 degradation
The test substance was dissolved in a 0.05 M Tris-HC1 (pH7.4) buffer to make a total volume of 400 µl, and 50 µl of a 3 mM S-2251 solution was added to the solution. The mixture was incubated at 37°C for 5 minutes in an incubator, and after the addition of 50 µl of 0.2 casein units/ml of human plasmin, and incubation at 37°C for 4 minutes, the reaction was terminated by an addition of 50 µl of 50% acetic acid.

[3] = test system: experimental pancreatitis; experiment: Effect on experimental pancreatitis (sodium taurochorate + trypsin into the common bile duct), survival ratio; format: in vivo, SD-rats; conditions: 80 μg/kg/min. x 80 min. continuous infusion, rat
From the text: [II] Effect on experimental pancreatitis
SD-rats, body weight of about 200 g were, starved overnight, and 10 to 24 animals were used in one group. Sodium pentobarbital was intraperioneally administered to anesthetize each rat, and then a cannula was inserted to the femoral vein for the administration of the test substance. After abdominal surgery, the bile duct was blocked at a part thereof proximate to the liver, by a clip, a polyethylene tube was inserted to the common bile duct at a part thereof most proximate to the duodenum, and 0.1 ml of solution containing 2 mg sodium taurochorate and 1000 U trypsin dissolved in physiological saline was injected retrogrodely. After removal of the clip and tube, the common bile duct was ligated and the abdomen was closed. Note, the test substance was dissolved in an injective 5% glucose solution, and in the case of a continuous infusion, the solution was administered over 80 minutes starting from 10 minutes before the generation of pancreatitis. In the case of oral administration, the test substance was administered through an oral catheter 30 minutes before the generation of pancreatitis. After 24 hours and 48 hours from the generation of pancreatitis, the survival ratio of the animals was calculated and compared with a control group.

experimental shock = experiment: Effect on experimental shock (endotoxin-induced), survival ratio; format: in vivo, ICR-mice; conditions: dose of 30 mg/kg intraperitoneally 15 minutes before endotoxin 40 mg/kg, mouse
Description: [IV] Effect on experimental shock
ICR-mice, body weight of about 25 g, were starved overnight. The test substance was dissolved in an injective 5% glucose solution and intraperioneally administered, and 15 minutes later, endotoxin (E. coli 0127:B8, Difco, U.S.) dissolved in a physiological saline was intraperioneally administered to an amount of 40 mg/kg body weight.

in vivo = conditions: mouse, intravenous, ICR male mice, up-and-down method, read-out: Acute toxicity (LD50)
Description: ICR male mice 5 to 10 weeks old were used. The test substance was dissolved in a 5% dimethylsulfoxide aqueous solution, and the solution was intravenously administered in an amount of 0.1 to 0.2 ml/10 g body weight. An LD50 value was calculated by up-and-down method.

bovine factor Xa = target: T3, bovine factor Xa (Bos taurus, UniProt P00743); experiment: Anti-FXa activity: inhibition of S-2222 degradation; format: biochemical; conditions: substrate S-2222, 37°C, pH 8.3; read-out: FXa S-2222 (I50)
T3 construct: 0.05 ml of 0.3 vial/ml bovine factor Xa
Description: 4) Assay of anti-FXa activity Assay method of inhibition of S-2222 degradation
To 0.4 ml of the test substance dissolved in a 0.05 M Tris-HC1 (pH 8.3) buffer is added 0.05 ml of 3 mM S-2222 solution, and after incubation at 37°C for about 4 minutes, an addition of 0.05 ml of 0.3 vial/ml bovine factor Xa, and a reaction at 37°C for 4 minutes, the - reaction was terminated by adding 0.05 ml of 50% acetic acid.

experimental DIC = experiment: Effect on experimental DIC and MOF (endotoxin-induced); format: in vivo, SD-rats; conditions: Dose 100 μg/kg/min infusion, rat, 4 hours after endotoxin 10 mg/kg; for CPK: Table 5-1
Description: [III] Effect on experimental DIC
SD-rats, body weight of about 200 g, were starved overnight. Sodium pentobarbital was intraperioneally administered to anesthetize a rat, and then a cannula was inserted to the femoral vein, and the test substance dissolved in an injective 5% glucose solution was continually infused. Then, 10 minutes from the start of the injection, endotoxin (E. coli 0127:B8, Difco, U.S.) dissolved in physiological saline was injected through the tail vein to an amount of 10 mg/kg body weight, and 4 hours from the administration of endotoxin, the abdomen was opened, blood was obtained from the abdominal aorta, and platelets (Plt), fibrinogen (Fbg), fibrin degradation product (FDP), glutamic oxaloacetic transamirase (GOT), creatinine phosphokinase (CPK), and blood urin nitrogen (BUN) were measured.

T3 sequence (P00743 234-492 limits assumed): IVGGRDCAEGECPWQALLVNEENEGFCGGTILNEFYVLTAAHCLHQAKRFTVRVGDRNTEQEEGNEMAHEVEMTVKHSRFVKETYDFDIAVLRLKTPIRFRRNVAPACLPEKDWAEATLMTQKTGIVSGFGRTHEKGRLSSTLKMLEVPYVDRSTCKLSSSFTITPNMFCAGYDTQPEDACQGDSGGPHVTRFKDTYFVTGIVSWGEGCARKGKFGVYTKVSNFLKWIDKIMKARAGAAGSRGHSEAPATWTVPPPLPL
T3 sequence (P00743 41-180 partner limits assumed): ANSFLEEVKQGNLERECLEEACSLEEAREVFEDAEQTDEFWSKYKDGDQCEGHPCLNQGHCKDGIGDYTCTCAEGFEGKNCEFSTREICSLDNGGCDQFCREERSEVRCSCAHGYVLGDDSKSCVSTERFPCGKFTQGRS
T1 sequence (P03952 391-638 limits assumed): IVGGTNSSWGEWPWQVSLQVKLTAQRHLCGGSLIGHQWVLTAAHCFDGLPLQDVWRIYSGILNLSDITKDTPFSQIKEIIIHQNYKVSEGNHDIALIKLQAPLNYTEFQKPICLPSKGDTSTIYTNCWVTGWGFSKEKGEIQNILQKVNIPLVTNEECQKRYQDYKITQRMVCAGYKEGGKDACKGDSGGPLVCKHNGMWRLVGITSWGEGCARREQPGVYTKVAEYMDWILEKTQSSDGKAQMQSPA
T1 sequence (P03952 20-390 partner limits assumed): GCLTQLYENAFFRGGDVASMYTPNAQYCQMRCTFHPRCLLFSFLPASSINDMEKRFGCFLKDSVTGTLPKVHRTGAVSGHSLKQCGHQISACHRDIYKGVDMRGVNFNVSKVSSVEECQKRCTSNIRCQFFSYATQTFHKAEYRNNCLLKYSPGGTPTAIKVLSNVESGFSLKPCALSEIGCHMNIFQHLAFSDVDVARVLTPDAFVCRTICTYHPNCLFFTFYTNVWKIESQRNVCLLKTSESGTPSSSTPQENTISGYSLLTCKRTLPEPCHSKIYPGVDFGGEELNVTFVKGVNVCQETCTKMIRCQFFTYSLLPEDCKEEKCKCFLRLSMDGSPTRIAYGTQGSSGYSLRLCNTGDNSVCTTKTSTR
T2 sequence (P00747 581-810 limits assumed): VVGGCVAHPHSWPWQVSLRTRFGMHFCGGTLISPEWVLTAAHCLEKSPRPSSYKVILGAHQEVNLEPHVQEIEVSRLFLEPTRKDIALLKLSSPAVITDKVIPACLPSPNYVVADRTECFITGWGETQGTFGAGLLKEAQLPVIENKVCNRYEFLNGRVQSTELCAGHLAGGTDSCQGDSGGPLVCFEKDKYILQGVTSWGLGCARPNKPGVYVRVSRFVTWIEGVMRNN
T2 sequence (P00747 97-580 partner limits assumed): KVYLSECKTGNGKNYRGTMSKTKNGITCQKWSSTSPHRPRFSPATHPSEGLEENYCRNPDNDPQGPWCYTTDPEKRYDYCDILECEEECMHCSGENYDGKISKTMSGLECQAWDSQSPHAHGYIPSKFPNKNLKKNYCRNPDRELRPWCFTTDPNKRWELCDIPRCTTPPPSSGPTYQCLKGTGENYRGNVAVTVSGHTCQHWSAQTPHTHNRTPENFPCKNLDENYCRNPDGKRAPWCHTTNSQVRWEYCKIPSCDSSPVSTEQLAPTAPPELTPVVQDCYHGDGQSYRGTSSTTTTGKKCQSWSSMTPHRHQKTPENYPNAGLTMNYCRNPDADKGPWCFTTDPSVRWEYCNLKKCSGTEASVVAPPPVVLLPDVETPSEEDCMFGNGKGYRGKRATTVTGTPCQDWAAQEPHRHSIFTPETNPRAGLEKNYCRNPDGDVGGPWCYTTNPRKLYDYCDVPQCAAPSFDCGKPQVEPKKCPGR

Row | SMILES | IC50 (human plasma kallikrein) | IC50 (human plasmin [1]) | IC50 (human urokinase) | IC50 (human plasmin [2]) | Effect on experimental pancreatitis Survival ratio(%) After 24 hours [3] | Effect on experimental pancreatitis Survival ratio(%) After 48 hours [3] | Effect on experimental shock (Survival ratio (%) after 24 hours) (experimental shock) | LD50 (in vivo) | IC50 (bovine factor Xa) | BUN (experimental DIC) | FDP (experimental DIC) | Fbg (experimental DIC) | GOT (experimental DIC) | Plat (experimental DIC) | CPK (experimental DIC)
1 | NC[C@H]1CC[C@H](C(=O)NC(Cc2cccc(Oc3ccccc3)c2)C(=O)Nc2ccnc(Cl)c2)CC1 (mixture of isomers) [Compound 11] | 0.43 µM | 10 µM | 190 µM | 31 µM | 42.0% | 26.7% | 84% | > 100 mg/kg |  |  |  |  |  |  | 
2 | NC[C@H]1CC[C@H](C(=O)NC(Cc2cccc(Oc3ccccc3)c2)C(=O)Nc2ccncc2)CC1 (mixture of isomers) [Compound 13] |  |  |  |  |  |  | 79% | 85 mg/kg | > 200 µM |  |  |  |  |  | 
3 | NC[C@H]1CC[C@H](C(=O)NC(Cc2cccc(Oc3ccccc3)c2)C(=O)Nc2cccnc2)CC1 (mixture of isomers) [Compound 14] | 2 µM | 70 µM | 250 µM | 98 µM | 58.3% | 41.7% |  | 50 mg/kg |  |  |  |  |  |  | 
4 | CC(=O)c1ccc(NC(=O)[C@H](Cc2ccccc2)NC(=O)[C@H]2CC[C@H](CN)CC2)cc1 [Compound 2] | 0.85 µM | 21 µM | 58 µM | 36 µM |  |  | 50% | 50 mg/kg | 540 µM |  |  |  |  |  | 
5 | NC[C@H]1CC[C@H](C(=O)N[C@@H](Cc2ccc(OCc3ccccc3)cc2)C(=O)Nc2ccncc2)CC1 [Compound 4] | 1.2 µM | 0.7 µM | 32 µM | 3.4 µM |  |  | 82% | 85 mg/kg | 90 µM |  |  |  |  |  | 
6 | CC(=O)c1ccc(NC(=O)[C@H](Cc2cccc(Oc3ccccc3)c2)NC(=O)[C@H]2CC[C@H](CN)CC2)cc1 [Compound 7] |  |  |  |  |  |  | 90% | 60 mg/kg | > 200 µM |  |  |  |  |  | 
7 | NC[C@H]1CC[C@H](C(=O)N[C@@H](Cc2ccc(OCc3ccccc3)cc2)C(=O)Nc2ccncn2)CC1 [Compound 15] | 5.1 µM | 6.8 µM | 110 µM | 15 µM | 50.0% | 25.0% |  | > 100 mg/kg |  |  |  |  |  |  | 
8 | NC[C@H]1CC[C@H](C(=O)N[C@@H](Cc2ccc(OCc3ccccc3)cc2)C(=O)Nc2ccc(CCC(=O)O)cc2)CC1 [Compound 16] | 1.8 µM | 9 µM | 210 µM | 12 µM | 58.3% | 58.3% |  | > 100 mg/kg |  |  |  |  |  |  | 
9 | NCC1CCC(C(=O)NC(Cc2ccccc2)C(=O)Nc2ccc(CC(=O)O)cc2)CC1 (centres unmarked) [Compound 17] | 1.8 µM | 460 µM | 610 µM | 760 µM |  |  |  |  | > 1000 µM | 34 ± 11 mg/dL | 16 to 64 µg/mL | 143 ± 23 mg/dL | 146 ± 21 U/ml | 63 ± 2 x 10^4/μl | 22 ± 6 U/1
10 | CC(=O)c1ccc(NC(=O)[C@H](Cc2ccc(OCc3ccccn3)cc2)NC(=O)c2ccc(CN)cc2)cc1 [Compound 19] | 12 µM | 2.5 µM |  | 4.2 µM | 50.0% | 33.3% |  |  |  | 30 ± 4 mg/dL | 16 to 32 µg/mL | 147 ± 16 mg/dL | 219 ± 39 U/ml | 80 ± 11 x 10^4/μl | 19 ± 2 U/1
11 | CCOC(=O)CCc1ccc(NC(=O)C(Cc2ccc(OCc3ccccc3)cc2)NC(=O)C2CCC(CN)CC2)cc1 (centres unmarked) [Compound 21] |  |  |  |  | 45.5% | 36.4% |  | 100 mg/kg |  |  |  |  |  |  | 
12 | NCC1CCC(C(=O)NC(Cc2ccccc2)C(=O)Nc2ccc(C(=O)O)cc2)CC1 (centres unmarked) [Compound 22] | 2.7 µM | 560 µM | > 1000 µM | > 1000 µM |  |  |  | > 100 mg/kg | > 400 µM | 30 ± 3 mg/dL | 32 to 64 µg/mL | 107 ± 18 mg/dL | 195 ± 35 U/ml | 62 ± 12 x 10^4/μl | 14 ± 3 U/1
13 | NCC1CCC(C(=O)NC(Cc2ccc(OCc3ccccc3)cc2)C(=O)Nc2ccncc2)CC1 (centres unmarked) [Compound 23] | 360 µM | 140 µM | > 1000 µM | 120 µM |  |  | 51% | 60 mg/kg |  |  |  |  |  |  | 
14 | CC(=O)c1ccc(NC(=O)[C@@H](Cc2ccc(OCc3ccccn3)cc2)NC(=O)C2CCC(CN)CC2)cc1 (some centres unmarked) [Compound 24] | > 1000 µM | 240 µM | > 1000 µM | 78 µM |  |  |  |  |  |  |  |  |  |  | 
15 | NCC1CCC(C(=O)N[C@H](Cc2ccc([N+](=O)[O-])cc2)C(=O)Nc2ccc(C(=O)c3ccccc3)cc2)CC1 (some centres unmarked) [Compound 25] | > 250 µM | 58 µM | 170 µM | 240 µM |  |  | 70% |  |  |  |  |  |  |  | 
